Here are results for two compounds from patent publication US12622944B2, “Compositions containing, methods involving, and uses of non-natural amino acid linked dolastatin derivatives” (priority 2011, dated 2026).

Read-outs that look alike come from different tables or passages of the source.

Test [1] deals with MDA-MB-175. Put plainly: In vitro inhibition of proliferation assay (WST-8), MDA-MB-175. Type of test: cell-based. The conditions noted are these: Data Set I, experiment Sept. 13, 2010. The method, then:
(§1) At day 1, the cells were seeded. The media was aspirated and the T-225 culture flasks of cells was rinsed with 30 mL PBS−/. PBS was aspirated and 6 mL of 0.25% Trypsin-EDTA was added to each flask. The flasks were incubated at 37° C., 5% CO2 for 2-5 minutes. Adherent cells were dislodged by hitting flask and trypsin was neutralized by adding 14 mL culture medium. The cell suspension was mixed and transferred to a 50 mL conical tube. The cells were spun down at 1200 rpm, 5 min, room temperature. The resultant cell pellet was resuspended in 12 mL of culture medium. The cells were counted in a hemacytometer. Cells were seeded at appropriate cell densities into 96-well flat-bottom, clear plates and incubated overnight at 37° C., 5% CO2 to allow cells to attach. Plating volume was 80 uL/well. 80 uL/well of culture medium was utilized as the “no cell” control.
(§2) At day 2, the test samples were added to the cells. The test samples were diluted in culture medium to a 9× stock concentration in Column 2 of a round-bottom 96-well plate. 3× serial dilutions were made from Column 2 to Column 11 with a multi-channel pipettor. 10 uL/well of the above samples was added in duplicate to the appropriate wells of the seeded plate. The total volume in the wells was about 90 uL/well. […]
(§3) At day 5, proliferation readout occurred. […] The plates were measured for absorbance at OD 450 nm. […]
A general note: Tetrazolium dyes change colour on reduction, which living cells bring about.

Test [2] deals with ZR-75-30. Put plainly: In vitro inhibition of proliferation assay (WST-8), ZR-75-30. Format: cell-based. The conditions noted are these: Data Set I, experiment Sept. 4, 2010, read-out: IC50 Values [nM] after 72 hr drug treatment. The method, then: as §1, §2, §3
Test [3] concerns HT29. The test is described as follows: In vitro inhibition of proliferation assay (WST-8), HT29. Type of test: cell-based. The conditions noted are these: Data Set II, experiment Sept. 24, 2010, read-out: IC50 Values [nM] after 72 hr drug treatment. As for the experimental part:
as §1
(§4) Cell plating density examples include: • BT474 (high Her2)—20,000 cells/well in F12k/DMEM (50/50), 10% FBS, P/S • MDA-MB-468 (Her2 negative)-6,000 cells/well in F12k/DMEM (50/50), 10% FBS, P/S • HCC1954—5,000 cells/well in RPMI 1640, 10% FBS, P/S • SKOV-3—6,000 cells/well in RPMI 1640, 10% FBS, P/S • HT29—20,000 cells/well in McCoy's 5A, 10% FBS, P/S
(§5) At day 2, the test samples were added to the cells. […]
as §3

The subject of test [4] is SKOV-3. The test is described as follows: In vitro inhibition of proliferation assay (WST-8), SKOV-3. Format: cell-based. As for the experimental part: as §1, §4
(§6) At day 2, the test samples were added to the cells. The test samples were diluted in culture medium to a 9× stock concentration in Column 2 of a round-bottom 96-well plate. 3× serial dilutions were made from Column 2 to Column 11 with a multi-channel pipettor. 10 uL/well of the above samples was added in duplicate to the appropriate wells of the seeded plate. The total volume in the wells was about 90 uL/well. 10 uL/well of culture medium was added to avoid edge effects for sample wells. Media Control wells were included in the inner wells where no sample was added (just 10 uL/well of culture medium) to be used in proliferation calculations. The plates were incubated at 37° C., 5% CO2 for 72 hrs.
as §3

In test [5] the test system is HCC1954. Put plainly: In vitro inhibition of proliferation assay (WST-8), HCC1954. Format: cell-based, human. The conditions noted are these: read-out: IC50 Values [nM] after 72 hr drug treatment. As for the experimental part: as §1, §4, §5, §3
Test [6] deals with MDA-MB-468. The test is described as follows: In vitro inhibition of proliferation assay (WST-8), MDA-MB-468. Type of test: cell-based. The conditions noted are these: Data Set II, experiment Oct. 8, 2010, read-out: IC50 Values [nM] after 72 hr drug treatment. The method, then: as §1, §4, §5, §3
In test [7] the test system is NCI-N87. The test is described as follows: In vitro inhibition of proliferation assay (WST-8), NCI-N87. Type of test: cell-based. The conditions noted are these: Data Set I, experiment Sept. 4, 2010, read-out: IC50 Values [nM] after 72 hr drug treatment. As for the experimental part:
as §1, §2, §3

The subject of test [8] is BT474. Put plainly: In vitro inhibition of proliferation assay (WST-8), BT474. Format: cell-based. As for the experimental part:
as §1, §4, §6, §3

The test system of test [9] is LS513. The test is described as follows: In vitro inhibition of proliferation assay (WST-8), LS513. Format: cell-based. Particulars: Data Set I, experiment Sept. 4, 2010, read-out: IC50 Values [nM] after 72 hr drug treatment. The method, then:
as §1, §2, §3

For test [10], the system named is HCC1954 (human breast carcinoma) xenograft. Put plainly: In vivo anti-tumor efficacy in HCC1954 xenograft, SCID-bg mice. The conditions noted are these: 25 mg/kg iv qod × 5; day 28; HCC1954 study.
Protocol: HCC1954 (human breast carcinoma) cells were obtained from American Type Culture Collection (Manassas, VA) and cultured in RPMI+10% FBS, 37° C., 5% CO2 until 80% confluent. Cells were harvested by trypsinization and suspended in PBS at 1×10^8 cells/mL.
Female, SCID-beige mice, 5-8 weeks old, were obtained from Charles River Laboratories. HCC1954 cells (human, breast carcinoma, ATCC, #CRL-2338) were mixed 1:1 with Matrigel (BD Biosciences, Bedford MA) and injected subcutaneously into the mice. When tumors reached an average size of 100-200 mm^3, mice were sorted into groups of 9-10 mice each. Caliper measurements were taken twice weekly until the end of the study. To estimate tumor volume, two orthogonal diameters were measured with calipers and the values entered into the formula, (L×W×W)/2=V, (where W=the shortest diameter, L=the longest diameter and V-volume), to obtain an estimated volume. The tumor volume was converted to tumor weight in the Excel data file by assuming 1 mm^3=1 mg. Endpoint was based on a study design of tumor growth inhibition (TGI). When the mean tumor volume of the control group reached approx. 1,000 mm^3 all mice were euthanized or day 28, whichever came first. […]
HCC1954 cells were utilized for this study with 10 cells/mouse in Matrigel, SC in the right flank. […] Tumor volume was monitored until the endpoint was reached (1,000 mm^3 or 60 days). […]
The mark [11] stands for this setting: Data Set I, experiment Sept. 4, 2010, read-out: IC50 Values [nM] after 72 hr drug treatment.
Setting [12] is: Data Set I, experiment Sept. 13, 2010, read-out: IC50 Values [nM] after 72 hr drug treatment.

As to Dolastatin, the “IC50 Values [nM] after 72 hr drug treatment” value in test [1] was “no fit”. The IC50 (as a rule, the concentration needed to halve the response being measured) is more than 30 nM in test [2]; 4 nM in test [3]; 0.2 nM in test [4] (setting [11]); 0.1 nM in test [4] (setting [12]); 0.2 nM in test [4] (Data Set II, experiment Oct. 8, 2010, read-out: IC50 Values [nM] after 72 hr drug treatment); 0.06 nM in [5] (HCC1954, Data Set I, experiment Sept. 4, 2010). The IC50 in [5] (HCCI954, Data Set II, experiment Oct. 8, 2010) was 0.04 nM; in [6] it was less than 0.01 nM; in test [7] it was more than 30 nM; in test [8] (setting [11]) it was 0.1 nM; in [8] (setting [12]) it was 0.1 nM; in [8] (Data Set II, experiment Sept. 24, 2010, read-out: IC50 Values [nM] after 72 hr drug treatment), 2.5 nM. For the same compound, in [9], the IC50 worked out at 0.2 nM.
Turning to `CC(=O)O[C@H]1C(=O)[C@@]2(C)[C@H]([C@H](OC(=O)c3ccccc3)[C@]3(O)C[C@H](OC(=O)[C@H](O)[C@@H](NC(=O)c4ccccc4)c4ccccc4)C(C)=C1C3(C)C)[C@]1(OC(C)=O)CO[C@@H]1C[C@@H]2O` [paclitaxel], in test [10], the “Median Tumor Volume (mm3)” value was determined as 18 mm3 and the “T/C (Treated/Control)” value was 0.037.
